Source: ChEMBL document CHEMBL4330132, “5-Keto-3-cyano-2,4-diaminothiophenes as selective maternal embryonic leucine zipper kinase inhibitors” (Bioorg Med Chem Lett, 2019)

Tests used:
[1] = biological target: Tyrosine-protein kinase receptor TYRO3 (Homo sapiens) (UniProt Q06418); assay: Binding affinity to wild-type human partial length TYRO3 (S497 to T814 residues) expressed in bacterial expression system assessed as residual binding level at 1 uM by Kinomescan method relative to control
[2] = biological target: Mitogen-activated protein kinase 11 (Homo sapiens) (UniProt Q15759); assay: Binding affinity to wild-type human full length p38-beta (M1 to Q364 residues) expressed in bacterial expression system assessed as residual binding level at 1 uM by Kinomescan method relative to control
[3] = biological target: Serine/threonine-protein kinase PRP4 homolog (Homo sapiens) (UniProt Q13523); assay: Binding affinity to wild-type human partial length PRP4 (D657 to I1007 residues) expressed in bacterial expression system assessed as residual binding level at 1 uM by Kinomescan method relative to control
Serine/threonine-protein kinase PRP4 homolog (Homo sapiens), sequence (Q13523 whole entry, the tested form may be a part): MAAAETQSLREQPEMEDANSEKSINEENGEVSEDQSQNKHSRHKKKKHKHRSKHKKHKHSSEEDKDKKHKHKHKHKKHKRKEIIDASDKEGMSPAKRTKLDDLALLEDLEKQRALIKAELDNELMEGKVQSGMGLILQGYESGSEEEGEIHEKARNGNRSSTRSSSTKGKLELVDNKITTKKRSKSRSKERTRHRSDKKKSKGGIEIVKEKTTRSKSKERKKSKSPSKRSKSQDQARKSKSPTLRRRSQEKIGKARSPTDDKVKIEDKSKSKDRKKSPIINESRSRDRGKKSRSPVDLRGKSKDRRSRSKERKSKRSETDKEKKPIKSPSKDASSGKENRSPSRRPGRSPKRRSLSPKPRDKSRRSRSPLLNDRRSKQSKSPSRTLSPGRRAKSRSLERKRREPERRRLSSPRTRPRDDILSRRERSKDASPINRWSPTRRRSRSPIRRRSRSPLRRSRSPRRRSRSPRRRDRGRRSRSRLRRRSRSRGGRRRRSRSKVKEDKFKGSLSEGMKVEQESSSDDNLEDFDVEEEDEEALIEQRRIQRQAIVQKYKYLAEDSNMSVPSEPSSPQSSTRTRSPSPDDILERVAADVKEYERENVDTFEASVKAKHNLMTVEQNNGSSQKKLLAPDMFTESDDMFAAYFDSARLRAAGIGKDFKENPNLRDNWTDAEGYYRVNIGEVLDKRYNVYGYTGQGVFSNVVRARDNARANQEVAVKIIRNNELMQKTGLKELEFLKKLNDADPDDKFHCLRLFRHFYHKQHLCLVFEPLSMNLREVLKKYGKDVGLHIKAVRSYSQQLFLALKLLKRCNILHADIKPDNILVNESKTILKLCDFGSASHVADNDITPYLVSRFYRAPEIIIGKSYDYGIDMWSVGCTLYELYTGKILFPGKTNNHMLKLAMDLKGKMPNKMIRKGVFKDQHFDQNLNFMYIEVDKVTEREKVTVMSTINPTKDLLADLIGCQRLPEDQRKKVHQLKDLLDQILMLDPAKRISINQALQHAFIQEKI

[4] = tested on: Receptor-type tyrosine-protein kinase FLT3 (Homo sapiens), P36888 [UNDEFINED MUTATION]; assay: Binding affinity to human partial length FLT3 ITD mutant expressed in bacterial expression system assessed as residual binding level at 1 uM by Kinomescan method relative to control
[5] = biological target: cAMP-dependent protein kinase catalytic subunit PRKX (Homo sapiens) (UniProt P51817); assay: Binding affinity to wild-type human partial length PRKX (M1 to F358 residues) expressed in bacterial expression system assessed as residual binding level at 1 uM by Kinomescan method relative to control
[6] = biological target: Ephrin type-A receptor 6 (Homo sapiens) (UniProt Q9UF33); assay: Binding affinity to wild-type human partial length EPHA6 (Y700 to E1046 residues) expressed in bacterial expression system assessed as residual binding level at 1 uM by Kinomescan method relative to control
Ephrin type-A receptor 6 (Homo sapiens), sequence (Q9UF33 whole entry, the tested form may be a part, canonical isoform): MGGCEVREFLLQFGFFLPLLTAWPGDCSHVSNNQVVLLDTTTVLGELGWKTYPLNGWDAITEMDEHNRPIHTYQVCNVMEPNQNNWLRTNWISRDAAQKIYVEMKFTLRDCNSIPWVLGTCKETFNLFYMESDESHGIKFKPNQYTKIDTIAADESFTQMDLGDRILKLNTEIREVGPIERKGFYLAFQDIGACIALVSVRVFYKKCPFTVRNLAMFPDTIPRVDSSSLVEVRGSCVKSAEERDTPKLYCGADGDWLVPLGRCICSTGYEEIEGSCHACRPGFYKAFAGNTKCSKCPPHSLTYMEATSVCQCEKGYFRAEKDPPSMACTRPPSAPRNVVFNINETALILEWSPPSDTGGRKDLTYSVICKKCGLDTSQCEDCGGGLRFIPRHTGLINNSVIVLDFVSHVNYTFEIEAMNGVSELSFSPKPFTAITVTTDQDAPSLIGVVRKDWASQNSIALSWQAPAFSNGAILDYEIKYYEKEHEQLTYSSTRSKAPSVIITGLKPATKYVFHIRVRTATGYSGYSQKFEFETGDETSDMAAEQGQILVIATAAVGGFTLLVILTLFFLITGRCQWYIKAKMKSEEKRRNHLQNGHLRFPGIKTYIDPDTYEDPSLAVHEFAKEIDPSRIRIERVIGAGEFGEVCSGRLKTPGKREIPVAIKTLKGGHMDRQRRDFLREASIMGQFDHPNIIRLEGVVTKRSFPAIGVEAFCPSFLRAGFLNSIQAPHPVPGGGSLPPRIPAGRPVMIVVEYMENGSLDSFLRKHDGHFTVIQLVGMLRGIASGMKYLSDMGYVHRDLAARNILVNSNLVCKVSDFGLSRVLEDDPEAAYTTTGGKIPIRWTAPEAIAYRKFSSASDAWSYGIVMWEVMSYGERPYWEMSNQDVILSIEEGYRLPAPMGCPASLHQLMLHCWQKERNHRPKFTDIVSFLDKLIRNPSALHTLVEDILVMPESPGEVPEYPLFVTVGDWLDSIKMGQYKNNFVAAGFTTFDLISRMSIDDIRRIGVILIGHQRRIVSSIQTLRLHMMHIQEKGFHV

[7] = tested on: Phosphatidylinositol 4,5-bisphosphate 3-kinase catalytic subunit alpha isoform (Homo sapiens), P42336 [E545A]; assay: Binding affinity to human partial length PIK3CA E545A mutant (R108 to N1068 residues) expressed in mammalian expression system assessed as residual binding level at 1 uM by Kinomescan method relative to control
[8] = biological target: Dual specificity testis-specific protein kinase 1 (Homo sapiens) (UniProt Q15569); assay: Binding affinity to wild-type human full length TESK1 (R37 to S626 residues) expressed in bacterial expression system assessed as residual binding level at 1 uM by Kinomescan method relative to control
[9] = tested on: Epidermal growth factor receptor (Homo sapiens), P00533 [G719C]; assay: Binding affinity to human partial length EGFR G719C mutant (R669 to V1011 residues) expressed in bacterial expression system assessed as residual binding level at 1 uM by Kinomescan method relative to control
[10] = biological target: Cyclin-dependent kinase-like 5 (Homo sapiens) (UniProt O76039); assay: Binding affinity to wild-type human partial length CDKL5 (M1 to S337 residues) expressed in mammalian expression system assessed as residual binding level at 1 uM by Kinomescan method relative to control
Cyclin-dependent kinase-like 5 (Homo sapiens), sequence (O76039 whole entry, the tested form may be a part): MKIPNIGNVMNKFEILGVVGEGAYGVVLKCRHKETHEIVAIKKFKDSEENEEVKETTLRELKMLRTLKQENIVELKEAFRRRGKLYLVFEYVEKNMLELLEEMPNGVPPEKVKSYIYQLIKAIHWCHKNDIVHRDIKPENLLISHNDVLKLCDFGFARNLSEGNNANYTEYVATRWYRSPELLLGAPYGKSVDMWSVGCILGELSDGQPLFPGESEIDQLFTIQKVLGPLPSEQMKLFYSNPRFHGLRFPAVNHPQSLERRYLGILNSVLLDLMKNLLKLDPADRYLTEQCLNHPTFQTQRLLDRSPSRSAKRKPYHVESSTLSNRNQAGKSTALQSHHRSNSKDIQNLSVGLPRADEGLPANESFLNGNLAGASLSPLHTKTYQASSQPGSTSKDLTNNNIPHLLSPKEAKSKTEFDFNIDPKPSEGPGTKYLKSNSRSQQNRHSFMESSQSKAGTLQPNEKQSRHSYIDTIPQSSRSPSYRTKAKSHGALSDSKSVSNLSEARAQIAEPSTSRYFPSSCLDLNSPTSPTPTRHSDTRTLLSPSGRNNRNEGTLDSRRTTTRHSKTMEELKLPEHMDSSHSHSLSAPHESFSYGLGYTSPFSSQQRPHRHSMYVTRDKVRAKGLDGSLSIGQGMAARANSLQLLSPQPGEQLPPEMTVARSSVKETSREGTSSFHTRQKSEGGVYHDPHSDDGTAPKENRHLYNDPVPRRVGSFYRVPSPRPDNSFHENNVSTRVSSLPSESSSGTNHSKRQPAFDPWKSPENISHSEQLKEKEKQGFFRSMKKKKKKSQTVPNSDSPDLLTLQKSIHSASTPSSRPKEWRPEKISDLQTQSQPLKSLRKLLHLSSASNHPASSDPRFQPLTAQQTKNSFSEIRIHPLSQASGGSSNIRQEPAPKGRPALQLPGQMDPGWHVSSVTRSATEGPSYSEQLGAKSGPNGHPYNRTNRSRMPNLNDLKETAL

[11] = biological target: Ephrin type-A receptor 1 (Homo sapiens) (UniProt P21709); assay: Binding affinity to wild-type human partial length EPHA1 (V588 to I913 residues) expressed in bacterial expression system assessed as residual binding level at 1 uM by Kinomescan method relative to control
[12] = biological target: Insulin-like growth factor 1 receptor (Homo sapiens) (UniProt P08069); assay: Binding affinity to wild-type human partial length IGF1R (L972 to D1294 residues) expressed in bacterial expression system assessed as residual binding level at 1 uM by Kinomescan method relative to control
[13] = biological target: Transient receptor potential cation channel subfamily M member 6 (Homo sapiens) (UniProt Q9BX84); assay: Binding affinity to wild-type human partial length TRPM6 (Q1723 to I1998 residues) expressed in mammalian expression system assessed as residual binding level at 1 uM by Kinomescan method relative to control
[14] = biological target: Phosphatidylinositol 4-phosphate 3-kinase C2 domain-containing subunit beta (Homo sapiens) (UniProt O00750); assay: Binding affinity to wild-type human partial length PIK3C2B (M1 to L1634 residues) expressed in mammalian expression system assessed as residual binding level at 1 uM by Kinomescan method relative to control
[15] = biological target: Homeodomain-interacting protein kinase 4 (Homo sapiens) (UniProt Q8NE63); assay: Binding affinity to wild-type human partial length HIPK4 (M1 to V384 residues) expressed in bacterial expression system assessed as residual binding level at 1 uM by Kinomescan method relative to control
Homeodomain-interacting protein kinase 4 (Homo sapiens), sequence (Q8NE63 whole entry, the tested form may be a part): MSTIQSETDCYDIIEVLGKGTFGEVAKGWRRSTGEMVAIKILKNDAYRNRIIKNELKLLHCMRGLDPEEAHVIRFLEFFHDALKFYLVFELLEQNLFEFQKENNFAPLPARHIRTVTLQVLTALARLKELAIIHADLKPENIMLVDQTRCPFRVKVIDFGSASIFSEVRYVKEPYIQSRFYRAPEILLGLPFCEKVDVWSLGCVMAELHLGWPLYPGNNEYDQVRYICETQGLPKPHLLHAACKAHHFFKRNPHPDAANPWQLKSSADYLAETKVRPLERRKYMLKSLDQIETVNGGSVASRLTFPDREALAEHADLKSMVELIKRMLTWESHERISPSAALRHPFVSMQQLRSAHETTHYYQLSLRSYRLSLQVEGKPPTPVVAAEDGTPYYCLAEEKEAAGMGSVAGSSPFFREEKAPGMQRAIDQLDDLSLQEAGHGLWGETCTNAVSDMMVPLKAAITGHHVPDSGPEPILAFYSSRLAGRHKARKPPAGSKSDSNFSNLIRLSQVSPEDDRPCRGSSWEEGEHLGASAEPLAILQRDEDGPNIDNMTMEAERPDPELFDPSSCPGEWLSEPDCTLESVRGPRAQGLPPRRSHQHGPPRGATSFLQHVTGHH

[16] = biological target: Dual specificity tyrosine-phosphorylation-regulated kinase 2 (Homo sapiens) (UniProt Q92630); assay: Binding affinity to wild-type human full length DYRK2 (M1 to S528 residues) expressed in mammalian expression system assessed as residual binding level at 1 uM by Kinomescan method relative to control
[17] = biological target: SRSF protein kinase 2 (Homo sapiens) (UniProt P78362); assay: Binding affinity to wild-type human full length SRPK2 (M1 to S686 residues) expressed in bacterial expression system assessed as residual binding level at 1 uM by Kinomescan method relative to control
[18] = tested on: Mast/stem cell growth factor receptor Kit (Homo sapiens), P10721 [D816V]; assay: Binding affinity to human partial length KIT D816V mutant (I571 to D952 residues) expressed in bacterial expression system assessed as residual binding level at 1 uM by Kinomescan method relative to control
[19] = biological target: AP2-associated protein kinase 1 (Homo sapiens) (UniProt Q2M2I8); assay: Binding affinity to human wild-type AAK1 (G25 to L333 residues) expressed in bacterial expression system assessed as residual binding level at 1 uM by Kinomescan method relative to control
[20] = biological target: Protein kinase C iota type (Homo sapiens) (UniProt P41743); assay: Binding affinity to wild-type human partial length PRKCI (H215 to V587 residues) expressed in mammalian expression system assessed as residual binding level at 1 uM by Kinomescan method relative to control
[21] = biological target: Serine/threonine-protein kinase ULK3 (Homo sapiens) (UniProt Q6PHR2); assay: Binding affinity to wild-type human partial length ULK3 (M1 to Q290 residues) expressed in mammalian expression system assessed as residual binding level at 1 uM by Kinomescan method relative to control
[22] = biological target: Dual specificity mitogen-activated protein kinase kinase 7 (Homo sapiens) (UniProt O14733); assay: Binding affinity to wild-type human full length MKK7 (M1 to R419 residues) expressed in mammalian expression system assessed as residual binding level at 1 uM by Kinomescan method relative to control
Dual specificity mitogen-activated protein kinase kinase 7 (Homo sapiens), sequence (O14733 whole entry, the tested form may be a part): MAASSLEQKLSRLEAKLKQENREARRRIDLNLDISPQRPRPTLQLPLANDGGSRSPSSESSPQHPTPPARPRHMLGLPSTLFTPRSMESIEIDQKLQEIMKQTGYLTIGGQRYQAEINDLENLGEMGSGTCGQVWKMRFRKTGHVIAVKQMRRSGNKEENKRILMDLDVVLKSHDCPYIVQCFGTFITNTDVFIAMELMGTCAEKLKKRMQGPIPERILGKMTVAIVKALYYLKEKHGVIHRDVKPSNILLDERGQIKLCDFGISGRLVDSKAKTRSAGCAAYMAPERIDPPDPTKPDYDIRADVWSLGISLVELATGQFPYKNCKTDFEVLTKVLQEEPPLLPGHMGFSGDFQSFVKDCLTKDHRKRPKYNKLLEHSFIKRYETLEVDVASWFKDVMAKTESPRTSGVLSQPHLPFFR

[23] = biological target: Mitogen-activated protein kinase kinase kinase kinase 5 (Homo sapiens) (UniProt Q9Y4K4); assay: Binding affinity to wild-type human partial length MAP4K5 (M1 to P297 residues) expressed in bacterial expression system assessed as residual binding level at 1 uM by Kinomescan method relative to control
Mitogen-activated protein kinase kinase kinase kinase 5 (Homo sapiens), sequence (Q9Y4K4 whole entry, looked up, the tested form may be a part): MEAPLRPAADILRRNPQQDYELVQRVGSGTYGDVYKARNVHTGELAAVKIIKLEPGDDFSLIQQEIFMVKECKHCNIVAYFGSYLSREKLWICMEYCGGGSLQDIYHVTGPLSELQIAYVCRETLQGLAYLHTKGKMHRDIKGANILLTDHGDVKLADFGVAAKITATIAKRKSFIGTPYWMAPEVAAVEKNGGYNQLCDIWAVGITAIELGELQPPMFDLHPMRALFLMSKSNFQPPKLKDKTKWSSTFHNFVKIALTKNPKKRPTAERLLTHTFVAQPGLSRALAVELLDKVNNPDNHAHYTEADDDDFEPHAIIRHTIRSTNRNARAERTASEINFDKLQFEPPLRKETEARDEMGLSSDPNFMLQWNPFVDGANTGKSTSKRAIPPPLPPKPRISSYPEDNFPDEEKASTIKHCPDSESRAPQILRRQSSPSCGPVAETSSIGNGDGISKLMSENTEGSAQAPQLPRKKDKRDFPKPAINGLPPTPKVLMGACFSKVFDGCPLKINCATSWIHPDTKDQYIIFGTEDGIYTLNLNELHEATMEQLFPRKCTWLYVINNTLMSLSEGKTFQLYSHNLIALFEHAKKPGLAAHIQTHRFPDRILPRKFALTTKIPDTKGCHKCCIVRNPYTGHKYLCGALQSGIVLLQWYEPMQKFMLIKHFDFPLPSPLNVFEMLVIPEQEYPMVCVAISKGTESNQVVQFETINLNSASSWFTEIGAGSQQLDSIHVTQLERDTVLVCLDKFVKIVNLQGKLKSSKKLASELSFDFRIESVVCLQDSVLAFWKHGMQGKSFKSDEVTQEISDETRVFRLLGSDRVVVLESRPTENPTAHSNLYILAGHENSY

[24] = biological target: Serine/threonine-protein kinase Nek3 (Homo sapiens) (UniProt P51956); assay: Binding affinity to wild-type human full length NEK3 (M1 to R506 residues) expressed in mammalian expression system assessed as residual binding level at 1 uM by Kinomescan method relative to control

## CC(C)Nc1sc(C(=O)c2ccc(Cl)s2)c(N)c1C#N
[1]
  Activity: 92%
[2]
  Activity: 83%
[3]
  Activity: 100%
[4]
  Activity: 77%
[5]
  Activity: 79%
[6]
  Activity: 86%
[7]
  Activity: 100%
[8]
  Activity: 94%
[9]
  Activity: 100%
[10]
  Activity: 100%
[11]
  Activity: 95%
[12]
  Activity: 90%
[13]
  Activity: 92%
[14]
  Activity: 100%
[15]
  Activity: 80%
[16]
  Activity: 100%
[17]
  Activity: 93%
[18]
  Activity: 55%
[19]
  Activity: 16%
[20]
  Activity: 100%
[21]
  Activity: 99%
[22]
  Activity: 100%
[23]
  Activity: 78%
[24]
  Activity: 100%
